Values quoted from earlier work as cited in patent US20230349886A1, “SYSTEMS AND METHODS FOR PREDICTING CARDIOTOXICITY OF MOLECULAR PARAMETERS OF A COMPOUND BASED ON MACHINE LEARNING ALGORITHMS” (UTI Limited Partnership, priority 2015, published 2023).
Where two headings read alike, the source gives them in different places.

How the values were obtained:
[1] = Brown dataset; flag given as 1 or 0
[2] = molecular target: hERG (Homo sapiens, UniProt Q12809); on HERG maxInhib: test concentration or dose not given here
Sequence of hERG (Q12809 whole entry): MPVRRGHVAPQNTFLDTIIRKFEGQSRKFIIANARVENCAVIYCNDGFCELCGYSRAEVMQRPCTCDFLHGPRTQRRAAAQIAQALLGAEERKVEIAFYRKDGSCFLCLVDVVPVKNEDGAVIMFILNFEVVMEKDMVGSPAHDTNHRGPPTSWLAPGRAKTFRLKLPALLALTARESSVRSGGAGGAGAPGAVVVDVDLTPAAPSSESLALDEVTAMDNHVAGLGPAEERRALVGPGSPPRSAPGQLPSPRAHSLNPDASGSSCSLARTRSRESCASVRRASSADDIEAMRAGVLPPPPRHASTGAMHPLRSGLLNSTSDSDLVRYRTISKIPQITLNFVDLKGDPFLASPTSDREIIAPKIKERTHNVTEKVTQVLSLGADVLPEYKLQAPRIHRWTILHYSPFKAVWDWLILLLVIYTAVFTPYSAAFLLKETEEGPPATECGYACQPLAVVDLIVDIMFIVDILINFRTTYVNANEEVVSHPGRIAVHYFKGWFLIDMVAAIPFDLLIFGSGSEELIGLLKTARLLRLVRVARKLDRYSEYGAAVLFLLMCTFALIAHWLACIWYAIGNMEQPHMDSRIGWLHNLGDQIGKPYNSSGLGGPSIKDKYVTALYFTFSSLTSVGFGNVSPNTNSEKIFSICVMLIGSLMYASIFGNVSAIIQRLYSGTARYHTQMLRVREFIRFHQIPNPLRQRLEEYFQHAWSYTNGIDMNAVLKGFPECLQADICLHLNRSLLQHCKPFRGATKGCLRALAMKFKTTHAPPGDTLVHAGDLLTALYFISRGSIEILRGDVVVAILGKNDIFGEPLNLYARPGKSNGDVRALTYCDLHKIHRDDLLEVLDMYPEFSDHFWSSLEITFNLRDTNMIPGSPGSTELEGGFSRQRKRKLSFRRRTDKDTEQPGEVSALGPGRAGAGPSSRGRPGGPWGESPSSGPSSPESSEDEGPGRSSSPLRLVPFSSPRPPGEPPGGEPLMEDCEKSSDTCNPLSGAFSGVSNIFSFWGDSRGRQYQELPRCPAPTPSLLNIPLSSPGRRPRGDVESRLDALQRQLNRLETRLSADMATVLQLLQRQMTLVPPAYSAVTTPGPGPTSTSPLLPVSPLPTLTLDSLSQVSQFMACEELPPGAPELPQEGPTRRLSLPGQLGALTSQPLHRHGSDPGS

[3] = molecular target: Nav1.5 (Homo sapiens, UniProt Q14524); settings: for IC50: read-out: NAV1.5 IC50; on NAV1.5 max inhib: test concentration or dose not given here
Sequence of Nav1.5 (Q14524 1-2016 isoform Q14524-4 V215L/S234P): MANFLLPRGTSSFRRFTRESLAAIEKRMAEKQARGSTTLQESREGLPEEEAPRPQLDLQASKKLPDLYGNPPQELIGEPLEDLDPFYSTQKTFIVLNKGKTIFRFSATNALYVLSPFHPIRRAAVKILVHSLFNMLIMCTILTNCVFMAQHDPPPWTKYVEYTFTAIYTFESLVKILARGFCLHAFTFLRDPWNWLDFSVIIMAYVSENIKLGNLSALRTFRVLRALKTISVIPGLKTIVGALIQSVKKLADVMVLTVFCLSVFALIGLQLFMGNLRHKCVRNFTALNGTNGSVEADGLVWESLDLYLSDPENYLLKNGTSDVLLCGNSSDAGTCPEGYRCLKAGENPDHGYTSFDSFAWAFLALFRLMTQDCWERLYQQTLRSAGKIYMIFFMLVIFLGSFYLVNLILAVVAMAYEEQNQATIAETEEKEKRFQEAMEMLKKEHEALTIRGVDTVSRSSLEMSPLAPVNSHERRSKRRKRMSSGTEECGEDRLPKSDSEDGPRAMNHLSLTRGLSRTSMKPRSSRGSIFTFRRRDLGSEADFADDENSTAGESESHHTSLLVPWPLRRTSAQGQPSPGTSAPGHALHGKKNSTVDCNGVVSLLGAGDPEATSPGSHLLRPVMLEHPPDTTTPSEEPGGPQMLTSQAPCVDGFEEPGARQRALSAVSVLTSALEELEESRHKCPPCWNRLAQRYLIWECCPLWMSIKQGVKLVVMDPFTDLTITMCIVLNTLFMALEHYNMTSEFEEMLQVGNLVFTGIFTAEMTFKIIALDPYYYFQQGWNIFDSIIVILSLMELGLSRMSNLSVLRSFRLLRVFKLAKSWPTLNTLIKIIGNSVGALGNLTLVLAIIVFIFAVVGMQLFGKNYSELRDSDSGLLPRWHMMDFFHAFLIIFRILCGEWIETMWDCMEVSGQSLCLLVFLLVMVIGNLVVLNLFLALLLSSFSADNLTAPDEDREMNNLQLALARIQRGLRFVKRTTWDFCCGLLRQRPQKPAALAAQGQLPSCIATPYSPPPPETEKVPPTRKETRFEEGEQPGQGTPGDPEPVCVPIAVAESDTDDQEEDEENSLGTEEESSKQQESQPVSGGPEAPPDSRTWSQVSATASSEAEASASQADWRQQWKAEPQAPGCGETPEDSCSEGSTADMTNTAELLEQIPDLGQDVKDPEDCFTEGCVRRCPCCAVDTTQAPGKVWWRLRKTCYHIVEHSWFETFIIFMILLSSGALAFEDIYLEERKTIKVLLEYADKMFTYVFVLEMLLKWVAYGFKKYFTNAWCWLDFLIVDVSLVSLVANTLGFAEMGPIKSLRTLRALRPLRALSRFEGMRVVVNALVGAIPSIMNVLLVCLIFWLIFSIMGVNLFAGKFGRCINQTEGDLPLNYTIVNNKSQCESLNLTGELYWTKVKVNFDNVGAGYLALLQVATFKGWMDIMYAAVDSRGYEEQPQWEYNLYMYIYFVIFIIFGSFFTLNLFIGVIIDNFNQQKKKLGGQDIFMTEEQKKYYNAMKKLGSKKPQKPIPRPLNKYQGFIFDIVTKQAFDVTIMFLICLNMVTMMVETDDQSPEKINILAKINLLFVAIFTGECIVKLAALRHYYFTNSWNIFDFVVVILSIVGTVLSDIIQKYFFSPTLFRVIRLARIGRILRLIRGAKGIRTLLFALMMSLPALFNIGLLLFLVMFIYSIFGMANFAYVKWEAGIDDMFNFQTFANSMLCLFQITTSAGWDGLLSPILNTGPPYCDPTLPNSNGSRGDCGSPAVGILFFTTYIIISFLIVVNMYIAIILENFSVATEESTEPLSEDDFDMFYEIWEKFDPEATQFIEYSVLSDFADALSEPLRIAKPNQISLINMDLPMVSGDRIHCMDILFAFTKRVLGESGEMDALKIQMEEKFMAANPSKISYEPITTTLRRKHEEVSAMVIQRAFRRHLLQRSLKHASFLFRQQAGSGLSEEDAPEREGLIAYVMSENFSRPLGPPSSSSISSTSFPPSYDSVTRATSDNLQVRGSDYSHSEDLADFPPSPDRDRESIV

[4] = molecular target: Cav1.2 (Homo sapiens, UniProt Q13936); on CAV1.2 max inhib: test concentration or dose not given here
[5] = read-out: HERG IC50, Brown dataset
[6] = read-out: CAV1.2 IC50, Brown dataset
[7] = Table 11, calculated from HERG-IC50 of the Kramer et al. 2013 data

Row | SMILES | Ris (TdP risk flag) [1] | NAV1.5 max inhib ([3]; Brown dataset) | IC50 ([3]; Brown dataset) [µM] | CAV1.2 max inhib ([4]; Brown dataset) | IC50 [4, 6] [µM] | further results
1 | CCCCc1oc2ccccc2c1C(=O)c1cc(I)c(OCCN(CC)CC)c(I)c1 [amiodaron] | 1 |  |  |  |  | 
2 | CN(C)CCCN1c2ccccc2Sc2ccc(Cl)cc21 [chlorprom ne] | 1 |  |  |  |  | HERG maxInhib ([2]; Brown dataset): 96.7; IC50 [2, 5]: 1.5 µM
3 | COc1cc(N)c(Cl)cc1C(=O)NC1CCN(CCCOc2ccc(F)cc2)CC1OC (stereo not shown) [cisapride] | 1 | 22.9 | 337 | 42.8 | 11.8 | 
4 | CN1CCN(C2=Nc3cc(Cl)ccc3Nc3ccccc32)CC1 [clozapine] |  | 91.8 | 15.1 | 73.5 |  | HERG maxInhib ([2]; Brown dataset): 97.7
5 | CN1C(=O)CN=C(c2ccccc2)c2cc(Cl)ccc21 [diazepam] | 0 |  |  |  |  | 
6 | CC(C)N(CCC(C(N)=O)(c1ccccc1)c1ccccn1)C(C)C (stereo not shown) [disopyrami] |  | 68.9 | 168 |  |  | CAV1.2 max inhib [4]: 22.1; CAV1.2 pIC50 [4]: 2.9843 902; IC50 [4]: 1040 µM
7 | CN(CCOc1ccc(NS(C)(=O)=O)cc1)CCc1ccc(NS(C)(=O)=O)cc1 [dofetilide] | 1 |  |  | 54.2 |  | 
8 | O=C(CCCN1CC=C(n2c(=O)[nH]c3ccccc32)CC1)c1ccc(F)cc1 [droperidol] | 1 | 59 | 22.7 | 83.4 | 7.6 | 
9 | CNCC[C@H](Oc1cccc2ccccc12)c1cccs1 [duloxetine] | 0 |  |  | 99.8 | 2.8 | NAV1.5 max inhib [3]: 100; IC50 [3]: 5.1 µM; HERG maxInhib [2]: 96.3
10 | CCCCN(CCCC)CCC(O)c1cc2c(Cl)cc(Cl)cc2c2cc(C(F)(F)F)ccc12 (stereo not shown) [halofantrin] |  | 8.3 | 331 |  |  | HERG maxInhib [2]: 77.9; HERG pIC50 [2]: 6.4202 403; IC50 [2]: 0.38 µM
11 | CCCCN(CCCC)CCC(O)c1cc2c(Cl)cc(Cl)cc2c2cc(C(F)(F)F)ccc12 (stereo not shown) [halofantrine] |  |  |  |  |  | pIC50 [2]: 6.42
12 | O=C(CCCN1CCC(O)(c2ccc(Cl)cc2)CC1)c1ccc(F)cc1 [haloperidol] |  | 96.6 |  | 94 |  | HERG maxInhib [2]: 89.2
13 | CC(=O)NC[C@H]1CN(c2ccc(N3CCOCC3)c(F)c2)C(=O)O1 [linezolid] | 0 | 9.6 | 2640 | 70.3 | 105 | HERG maxInhib ([2]; Brown dataset): 19.3; pIC50 [2, 7]: 2.94; IC50 [2, 5]: 1150 µM
14 | CCOC(=O)N1CCC(=C2c3ccc(Cl)cc3CCc3cccnc32)CC1 [loratadine] | 0 |  |  |  |  | 
15 | CCC(=O)C(CC(C)N(C)C)(c1ccccc1)c1ccccc1 (stereo not shown) [methadone] | 1 | 100 | 31.8 | 96.9 |  | HERG maxInhib ([2]; Brown dataset): 91.6; pIC50 [2, 7]: 5.456; IC50 [2, 5]: 3.5 µM
18 | COCC(=O)O[C@]1(CCN(C)CCCc2nc3ccccc3[nH]2)CCc2cc(F)ccc2[C@@H]1C(C)C [mibefradil] | 0 | 100 |  | 92.1 |  | 

Row | SMILES | Ris (TdP risk flag) [1] | NAV1.5 max inhib ([3]; Brown dataset) | IC50 ([3]; Brown dataset) [µM] | CAV1.2 max inhib ([4]; Brown dataset) | IC50 [4, 6] [µM] | further results
19 | COc1c(N2C[C@@H]3CCCN[C@@H]3C2)c(F)cc2c(=O)c(C(=O)O)cn(C3CC3)c12 [moxifloxacin] |  | 17.4 |  | 53.7 |  | HERG maxInhib ([2]; Brown dataset): 75.9
20 | Cc1cn(-c2cc(NC(=O)c3ccc(C)c(Nc4nccc(-c5cccnc5)n4)c3)cc(C(F)(F)F)c2)cn1 [nilotinib] |  |  |  | 32.4 |  | 
21 | CCOC(=O)C1=C(C)NC(C)=C(C(=O)OC)C1c1cccc([N+](=O)[O-])c1 (stereo not shown) [nitrendipine] | 0 | 86.3 | 21.6 | 74.6 |  | HERG maxInhib ([2]; Brown dataset): 68.3; pIC50 [2, 7]: 4.609; IC50 [2, 5]: 24.6 µM
22 | Cc1nc2n(c(=O)c1CCN1CCC(c3noc4cc(F)ccc34)CC1)CCCC2O (stereo not shown) [paliperidone] | 1 | 51.2 | 109 | 33.1 | 194 | 
23 | CCCC(C)C1(CC)C(=O)NC(=O)NC1=O (stereo not shown) [pentobarbital] | 0 | 9 | 2690 | 82.1 | 299 | HERG maxInhib [2]: 39.5; HERG pIC50 [2]: 2.843 135; IC50 [2]: 1430 µM; pIC50 [2]: 2.843
24 | O=c1[nH]c2ccccc2n1C1CCN(CCCC(c2ccc(F)cc2)c2ccc(F)cc2)CC1 [pimozide] | 1 |  |  | 88.1 |  | HERG maxInhib [2]: 91.3
25 | CCN1CCN(C(=O)N[C@@H](C(=O)N[C@@H]2C(=O)N3[C@@H]2SC(C)(C)[C@@H]3C(=O)O)c2ccccc2)C(=O)C1=O [piperacillin] |  | 9.7 | 2430 | 15.9 | 1230 | 
26 | CCN(CC)CCNC(=O)c1ccc(N)cc1 [procainamide] |  |  |  |  |  | HERG maxInhib ([2]; Brown dataset): 50.7
27 | C=C[C@H]1C[N@@]2CC[C@H]1C[C@@H]2[C@@H](O)c1ccnc2ccc(OC)cc12 [quinidine] | 1 | 97.5 |  | 58 |  | 
28 | CC(C)(C)NC(=O)[C@@H]1C[C@@H]2CCCC[C@@H]2CN1C[C@@H](O)[C@H](Cc1ccccc1)NC(=O)[C@H](CC(N)=O)NC(=O)c1ccc2ccccc2n1 [saquinavir] |  |  |  |  |  | HERG maxInhib ([2]; Brown dataset): 73.1; pIC50 [2, 7]: 4.772; IC50 [2, 5]: 16.9 µM
29 | O=C1NCCN1CCN1CCC(c2cn(-c3ccc(F)cc3)c3ccc(Cl)cc23)CC1 [sertindole] | 1 | 95.5 | 6.9 | 91.5 | 6.3 | 
30 | O=C(O[C@H]1CN2CCC1CC2)N1CCc2ccccc2[C@@H]1c1ccccc1 [solifenacin] |  | 100 |  | 96.4 |  | 
31 | CCN(CC)CCNC(=O)c1c(C)[nH]c(/C=C2\C(=O)Nc3ccc(F)cc32)c1C [sunitinib] | 1 | 66.4 |  | 61.5 | 33.4 | 
32 | Cc1cn([C@@H]2C[C@@H](O)[C@H](CO)O2)c(=O)[nH]c1=O [telbivudine] |  | 15.1 | 1100 | 22.1 | 714 | HERG maxInhib ([2]; Brown dataset): 17.4; pIC50 [2, 7]: 3.374; IC50 [2, 5]: 423 µM
33 | CC(C)(C)c1ccc(C(O)CCCN2CCC(C(O)(c3ccccc3)c3ccccc3)CC2)cc1 (stereo not shown) [terfenadine] |  | 99 |  | 98 |  | 
34 | CC(CC(c1ccccc1)c1ccccc1)NC(C)(C)C (stereo not shown) [terodiline] | 1 | 100 | 7.4 | 95.4 | 4.8 | 
35 | CSc1ccc2c(c1)N(CCC1CCCCN1C)c1ccccc1S2 (stereo not shown) [thioridazine] |  | 99.3 |  | 82.9 |  | 
36 | C[C@@H](c1ncncc1F)[C@](O)(Cn1cncn1)c1ccc(F)cc1F [voriconazole] |  | 15.8 | 1550 | 40.9 | 414 | 
